Where two headings read alike, the source gives them in different places.
What was measured:
[1] = tested on: patients with EGFRm, MET-amplified/overexpressed NSCLC; format: in vivo, human
[2] = format: in vivo, human; details: Parts B and D

| Compound | Any AE grade ≥3 possibly causally related to the labelled drug(s) only ([1]; All Part B) | Any AE leading to discontinuation of the labelled drug ([1]; All Part B) | Any AE leading to interruption or reduction of the labelled drug ([1]; All Part B) | Any SAE leading to discontinuation of the labelled drug ([1]; All Part B) | Any SAE leading to interruption or reduction of the labelled drug ([1]; All Part B) | Any SAE possibly causally related to the labelled drug(s) only ([1]; All Part B) | Labelled drug discontinued due to possibly causally related AE: vomiting ([1]; All Part B) | Any AE grade ≥3 possibly causally related to the labelled drug(s) only ([1]; Part B1) | Any AE leading to discontinuation of the labelled drug ([1]; Part B1) | Any AE leading to interruption or reduction of the labelled drug ([1]; Part B1) | Any SAE leading to discontinuation of the labelled drug ([1]; Part B1) | Any SAE leading to interruption or reduction of the labelled drug ([1]; Part B1) | Any SAE possibly causally related to the labelled drug(s) only ([1]; Part B1) | Any AE grade ≥3 possibly causally related to the labelled drug(s) only ([1]; Part B2) | Any AE leading to discontinuation of the labelled drug ([1]; Part B2) | Any AE leading to interruption or reduction of the labelled drug ([1]; Part B2) | Any SAE leading to discontinuation of the labelled drug ([1]; Part B2) | Any SAE leading to interruption or reduction of the labelled drug ([1]; Part B2) | Any SAE possibly causally related to the labelled drug(s) only ([1]; Part B2) | Any AE grade ≥3 possibly causally related to the labelled drug(s) only ([1]; Part B3) | further results |
| --- | --- | --- | --- | --- | --- | --- | --- | --- | --- | --- | --- | --- | --- | --- | --- | --- | --- | --- | --- | --- | --- |
| C=CC(=O)Nc1cc(Nc2nccc(-c3cn(C)c4ccccc34)n2)c(OC)cc1N(C)CCN(C)C [osimertinib] | 8 (6) n (%) | 24 (17) n (%) | 59 (43%) n (%) | 20 (14) n (%) | 27 (20) n (%) | 0 n (%) | 2 (1%) n (%) | 3 (4) n (%) | 12 (17) n (%) | 22 (32) n (%) | 9 (13) n (%) | 10 (14) n (%) | 0 n (%) | 3 (6) n (%) | 9 (18) n (%) | 25 (49) n (%) | 8 (16) n (%) | 11 (22) n (%) | 0 n (%) | 2 (11) n (%) | Labelled drug discontinued due to possibly causally related AE: pneumonitis ([1]; All Part B): 3 (2%) n (%); Any AE leading to interruption or reduction of the labelled drug ([1]; All Part B, listed as Osimertinib): 59 (43) n (%); Any AE leading to discontinuation of the labelled drug ([1]; Part B3): 3 (17) n (%); Any AE leading to interruption or reduction of the labelled drug ([1]; Part B3): 12 (67) n (%); Any SAE leading to discontinuation of the labelled drug ([1]; Part B3): 3 (17) n (%); Any SAE leading to interruption or reduction of the labelled drug ([1]; Part B3): 6 (33) n (%); Any SAE possibly causally related to the labelled drug(s) only ([1]; Part B3): 0 n (%); Any AE grade ≥3 possibly causally related to the labelled drug(s) only ([1]; Part D): 2 (5) n (%); Any AE leading to discontinuation of the labelled drug ([1]; Part D): 8 (19) n (%); Any AE leading to interruption or reduction of the labelled drug ([1]; Part D): 13 (31) n (%); Any SAE leading to discontinuation of the labelled drug ([1]; Part D): 2 (5) n (%); Any SAE leading to interruption or reduction of the labelled drug ([1]; Part D): 10 (24) n (%); Any SAE possibly causally related to the labelled drug(s) only ([1]; Part D): 1 (2) n (%) |
| C[C@@H](c1ccc2nccn2c1)n1nnc2ncc(-c3cnn(C)c3)nc21 [savolitinib, (S)-1-(1-(Imidazo[1,2-a]pyridin-6-yl)ethyl)-6-(1-methyl-1H-pyrazol-4-yl)-1H-[1,2, 3]triazolo[4,5-b]pyrazine] | 34 (25) n (%) | 49 (36) n (%) | 61 (44%) n (%) | 28 (20) n (%) | 20 (14) n (%) | 15 (11) n (%) | 4 (3%) n (%) | 14 (20) n (%) | 19 (28) n (%) | 27 (39) n (%) | 11 (16) n (%) | 9 (13) n (%) | 6 (9) n (%) | 13 (25) n (%) | 20 (39) n (%) | 25 (49) n (%) | 11 (22) n (%) | 9 (18) n (%) | 6 (12) n (%) | 7 (39) n (%) | Accumulation and time dependence of PK at steady state ([2]; multiple dosing): neither apparent accumulation nor time-dependent PK changes upon multiple dosing; half-life ([2]; human, plasma, oral, Mean terminal elimination half-life (t1/2λz), single and multiple dosing): 2 to 4 h; Tmax ([2]; human, plasma, oral, Median tmax and tssmax, savolitinib 600 mg/300 mg q.d. + osimertinib 80 mg q.d.): 2 to 4 h; Any AE leading to interruption or reduction of the labelled drug ([1]; All Part B, listed as Savolitinib): 61 (44) n (%); Deaths due to AEs considered possibly causally related to study drug ([1]; Part B2): one case was considered possibly related to savolitinib (acute renal failure); Any AE leading to discontinuation of the labelled drug ([1]; Part B3): 10 (56) n (%); Any AE leading to interruption or reduction of the labelled drug ([1]; Part B3): 9 (50) n (%); Any SAE leading to discontinuation of the labelled drug ([1]; Part B3): 6 (33) n (%); Any SAE leading to interruption or reduction of the labelled drug ([1]; Part B3): 2 (11) n (%); Any SAE possibly causally related to the labelled drug(s) only ([1]; Part B3): 3 (17) n (%); Any AE grade ≥3 possibly causally related to the labelled drug(s) only ([1]; Part D): 5 (12) n (%); Any AE leading to discontinuation of the labelled drug ([1]; Part D): 15 (36) n (%); Any AE leading to interruption or reduction of the labelled drug ([1]; Part D): 16 (38) n (%); Any SAE leading to discontinuation of the labelled drug ([1]; Part D): 6 (14) n (%); Any SAE leading to interruption or reduction of the labelled drug ([1]; Part D): 7 (17) n (%); Any SAE possibly causally related to the labelled drug(s) only ([1]; Part D): 2 (5) n (%); Labelled drug discontinued due to possibly causally related AE: myalgia ([1]; Part D): 3 (7%) n (%); Labelled drug discontinued due to possibly causally related AE: pyrexia ([1]; Part D): 2 (5%) n (%); Labelled drug discontinued due to possibly causally related AE: rash ([1]; Part D): 2 (5%) n (%) |
